Test results reported in patent US20230271949A1, “GLP-1R MODULATING COMPOUNDS” (ASCLETIS BIOSCIENCE CO., LTD., priority 2022, published 2023).

Each compound was assayed against GLP-1R (Homo sapiens, UniProt P43220) (assay: GLP-1R agonist cAMP stimulation assay (HTRF cAMP)). Conditions: HEK293 cell line expressing GLP-1 target; HTRF cAMP agonist mode, 30 min at RT.
GLP-1R, sequence (P43220 24-463): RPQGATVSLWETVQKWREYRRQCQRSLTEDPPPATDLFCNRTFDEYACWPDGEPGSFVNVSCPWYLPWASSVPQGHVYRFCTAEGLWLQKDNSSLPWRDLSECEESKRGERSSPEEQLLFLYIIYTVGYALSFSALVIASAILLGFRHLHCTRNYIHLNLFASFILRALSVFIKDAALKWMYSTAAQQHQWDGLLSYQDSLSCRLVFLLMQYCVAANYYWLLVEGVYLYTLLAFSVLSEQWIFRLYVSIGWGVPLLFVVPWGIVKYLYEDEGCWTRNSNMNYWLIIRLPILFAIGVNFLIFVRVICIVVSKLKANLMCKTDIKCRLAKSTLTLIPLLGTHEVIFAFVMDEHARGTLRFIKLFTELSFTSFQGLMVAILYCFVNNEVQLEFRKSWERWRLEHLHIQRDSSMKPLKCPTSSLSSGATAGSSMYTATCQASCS
Type: cell-based
Method in brief: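 GLP-1R-expressing cells were stimulated with 10-point, 3-fold compound dilutions for 30 min at RT; HTRF cAMP detection reagents were then added for 60 min and the 665/615 ratio read. Ratios were converted to cAMP via a standard curve and % activity scaled between DMSO and top-concentration GLP-1(7-37) reference wells.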
Cc1n[nH]c2c(Cl)cc(C(=O)Nc3ccc4c(c3)nc(C3CC35CCN(c3cccc(OCc6ccc(Cl)cc6F)n3)CC5)n4CC3CCO3)cc12 (centres unmarked) [Compound 248] was tested, and the EC50 was 1.28 nM. COCCn1c(CN2CCC(c3cccc(OCc4ccc(Cl)cc4F)n3)CC2)nc2cc(C(=O)NCc3ccc(O)c(F)c3)ccc21 [Compound 31] showed an EC50 of 37.2 nM. Compound O=C(Nc1cc2[nH]c(=O)[nH]c2cc1F)c1ccc2c(c1)nc(CN1CCC(c3cccc(OCc4ccc(Cl)cc4F)n3)CC1)n2C[C@@H]1CCO1 [Compound 92] has an EC50 of 18.6 nM. Cc1n[nH]c2c(C)cc(C(=O)Nc3ccc4nc(CN5CC=C(c6cccc(OCc7ccc(C#N)cc7F)n6)CC5)n(CC5CCO5)c4c3)cc12 (centres unmarked) [Compound 291] was tested, and the EC50 was 0.75 nM. Cc1[nH]c2ccc(C(=O)Nc3ccc4c(c3)nc(CN3CC=C(c5cccc(OCc6ccc(Cl)cn6)n5)CC3)n4C[C@@H]3CCO3)cc2c1C [Compound 392] gave an EC50 of 10.1 nM. Work on CCn1cncc1Cn1c(CN2CCC(c3cccc(OCc4ccc(Cl)cc4F)n3)CC2)nc2cc(NC(=O)c3cc(F)c4[nH]nc(C)c4c3)ccc21 [Compound 259] yielded an EC50 of 0.91 nM. Cc1cc(C(=O)Nc2ccc3c(c2)nc(CN2CC=C(c4cccc(OCc5ccc(Cl)cc5F)n4)CC2)n3C[C@@H]2CCO2)cc2cn[nH]c12 [Compound 199] showed an EC50 of 0.47 nM. Compound O=C(NCC(=O)N1C[C@@H](F)C[C@H]1C(=O)O)c1ccc2c(c1)nc(CN1CCC(c3cccc(OCc4ccc(Cl)cn4)n3)CC1)n2C[C@@H]1CCO1 [Compound 48] has an EC50 of 4.36 nM. C[C@H](NC(=O)c1ccc2c(c1)nc(CN1CCC(c3cccc(OCc4ccc(Cl)cc4F)n3)CC1)n2C[C@@H]1CCO1)C(=O)N1C[C@H](O)C[C@H]1C(=O)O [Compound 57] showed an EC50 of 1.41 nM. O=C(Nc1nc2[nH]cnc2o1)c1ccc2c(c1)nc(CN1CC=C(c3cccc(OCc4ccc(Cl)cc4F)n3)CC1)n2C[C@@H]1CCO1 [Compound 404] was tested, and the EC50 was 19.8 nM. For COC(=O)[C@@H]1CC(F)(F)CN1C(=O)[C@H](C)NC(=O)c1ccc2c(c1)nc(CN1CCC(c3cccc(OCc4ccc(Cl)cc4F)n3)CC1)n2C[C@@H]1CCO1 [Compound 68], the EC50 was 142 nM. Cc1cc(C(=O)Nc2ccc3c(c2)nc(CN2CC=C(c4cccc(OCc5ccc(Cl)cc5F)n4)CC2)n3C[C@@H]2CCO2)cc2c(C(F)F)n[nH]c12 [Compound 217] was tested, and the EC50 was 0.79 nM. With COCCn1c(C2CC23CCN(c2cccc(OCc4ccc(C#N)cc4F)n2)CC3)nc2cc(C(=O)Nc3ccc4[nH]nc(C)c4c3)ccc21 (centres unmarked) [Compound 7] the EC50 was 0.35 nM. Cc1cc(C(=O)Nc2ccc3c(c2)nc(Cc2c(F)cc(-c4cccc5c4OC(C)(c4ccc(Cl)cc4F)O5)cc2F)n3C[C@@H]2CCO2)cc2[nH]c(=O)[nH]c12 (some centres unmarked) [Compound 321] gave an EC50 of 0.94 nM. In the case of N#Cc1ccc(COc2cccc(C3CCN(Cc4nc5cc(C(=O)Nc6cc(F)c7[nH]ncc7c6)ccc5n4C[C@@H]4CCO4)CC3)n2)c(F)c1 [Compound 129], the EC50 is reported as 1.14 nM. Cc1cc(NC(=O)c2ccc3c(c2)nc(CN2CC=C(c4cccc(OCc5ccc(Cl)cc5F)n4)CC2)n3C[C@@H]2CCO2)c(C)c2c(C)n[nH]c12 [Compound 173] showed an EC50 of 31.5 nM. In the case of Cc1cc(NC(=O)c2ccc3c(c2)nc(CN2CC=C(c4cccc5c4OC(C)(c4ccc(Cl)cc4F)O5)CC2)n3CC2CCO2)cc2c(C(F)(F)F)n[nH]c12 (centres unmarked) [Compound 296], the EC50 is reported as 1.92 nM. Work on COCCn1c(Cc2ccc(-c3cccc(OCc4ccc(C#N)cc4F)n3)cc2)nc2cc(C(=O)NCCc3ccc(C(=O)NCCc4ccc(C(=O)O)cc4)cc3)ccc21 [Compound 10] yielded an EC50 of 993 nM. With Cc1cc(NC(=O)c2ccc3nc(CN4CC=C(c5cccc(OCc6ccc(Cl)cc6F)n5)CC4)n(CC4CCO4)c3c2)cc2c(F)n[nH]c12 (centres unmarked) [Compound 265] the EC50 was 45.9 nM. For CC(C)c1n[nH]c2ccc(NC(=O)c3ccc4c(c3)nc(CN3CCC(c5cccc(OCc6ccc(Cl)cc6F)n5)CC3)n4C[C@@H]3CCO3)cc12 [Compound 83], the EC50 was 3.76 nM. Compound C=C(C)c1n[nH]c2ccc(C(=O)Nc3ccc4c(c3)nc(Cc3c(F)cc(-c5cccc6c5OC(C)(c5ccc(Cl)cc5F)O6)cc3F)n4CC3CCO3)cc12 (centres unmarked) [Compound 327] has an EC50 of 3.96 nM. In the case of Cc1n[nH]c2c(F)cc(NC(=O)c3ccc4c(c3)nc(CN3CC=C(c5cccc6c5O[C@](C)(c5ccc(C#N)cc5F)O6)CC3)n4CC3CCO3)cc12 (some centres unmarked) [Compound 300], the EC50 is reported as 0.19 nM. In the case of Cc1n[nH]c2ccc(NC(=O)c3ccc4c(c3)nc(CN3CC=C(c5cccc(OCc6ccc(C#N)c7ccccc67)n5)CC3)n4C[C@@H]3CCO3)cc12 [Compound 366], the EC50 is reported as 5.97 nM. In the case of N#Cc1ccc(COc2cccc(C3=CCN(Cc4nc5cc(C(=O)Nc6cc(F)c7[nH]ncc7c6)ccc5n4C[C@@H]4CCO4)CC3)n2)c(F)c1 [Compound 180], the EC50 is reported as 1.06 nM. In the case of COCCn1c(CN2CCC(c3cccc(OCc4ccc(Cl)cc4F)n3)CC2)nc2cc(C(=O)N[C@@H](C)c3ccc(O)cc3)ccc21 [Compound 40], the EC50 is reported as 36.5 nM. For Cc1n[nH]c2c(F)cc(NC(=O)c3ccc4c(c3)nc(CN3CC=C(c5cccc(OCc6cc(F)c(C#N)s6)n5)CC3)n4C[C@@H]3CCO3)cc12 [Compound 363], the EC50 was 0.41 nM. For NC(=O)C[C@H](NC(=O)c1ccc2c(c1)nc(CN1CCC(c3cccc(OCc4ccc(Cl)cc4F)n3)CC1)n2CC1CCO1)C(=O)O (some centres unmarked) [Compound 52], the EC50 was 12.8 nM. In the case of Cc1n[nH]c2c(Cl)cc(C(=O)Nc3ccc4c(c3)nc(CN3CCC(c5cccc6c5OC(C)(c5ccc(Cl)cc5F)O6)CC3)n4CC3CCO3)cc12 (centres unmarked) [Compound 344], the EC50 is reported as 1.02 nM. With CC1(c2ccc(C#N)cc2F)Oc2cccc(C3=CCN(Cc4nc5cc(NC(=O)c6ccc7[nH]nc(C8CC8)c7c6)ccc5n4CC4CCO4)CC3)c2O1 (centres unmarked) [Compound 312] the EC50 was 0.99 nM. In the case of Cc1n[nH]c2cnc(NC(=O)c3ccc4c(c3)nc(CN3CC=C(c5cccc(OCc6ccc(Cl)cc6F)n5)CC3)n4C[C@@H]3CCO3)nc12 [Compound 168], the EC50 is reported as 10.5 nM. With O=C(NCC(=O)N1C[C@@H](O)[C@@H](O)C1)c1ccc2c(c1)nc(CN1CCC(c3cccc(OCc4ccc(Cl)cc4F)n3)CC1)n2C[C@@H]1CCO1 [Compound 67] the EC50 was 5.89 nM. Compound Cc1cc(C(=O)Nc2ccc3nc(CN4CC=C(c5cccc(OCc6ccc(Cl)cc6F)n5)CC4)n(C[C@@H]4CCO4)c3c2)cc2c1NC(=O)C21CC1 [Compound 282] has an EC50 of 4.32 nM. In the case of O=C(Nc1ncc2[nH]cnc2n1)c1ccc2c(c1)nc(CN1CCC(c3cccc(OCc4ccc(Cl)cc4F)n3)CC1)n2C[C@@H]1CCO1 [Compound 89], the EC50 is reported as 87.8 nM. Work on C[C@H](NC(=O)c1ccc2c(c1)nc(CN1CCC(c3cccc(OCc4ccc(Cl)cc4F)n3)CC1)n2C[C@@H]1CCO1)C(=O)N1CC(F)(F)C[C@H]1C(=O)O [Compound 66] yielded an EC50 of 1.41 nM. Compound Cc1n[nH]c2ccc(C(=O)Nc3ccc4c(c3)nc(C(F)(F)N3CC=C(c5cccc(OCc6ccc(Cl)cc6F)n5)CC3)n4C[C@@H]3CCO3)cc12 [Compound 257] has an EC50 of 15.1 nM. With Cc1n[nH]c2c(C)cc(C(=O)Nc3ccc4c(c3)nc(Cc3ccc(-c5cccc6c5OC(C)(c5ccc(C#N)cc5F)O6)cc3F)n4CC3CCO3)cc12 (centres unmarked) [Compound 317] the EC50 was 0.32 nM. Cc1n[nH]c2ccc(NC(=O)c3ccc4c(c3)nc(CN3CCC(c5cccc6c5OC(C)(c5ccc(Cl)cc5F)O6)CC3)n4CC3CCO3)cc12 (centres unmarked) [Compound 336] showed an EC50 of 1.03 nM. Compound Cc1n[nH]c2ccc(NC(=O)c3ccc4c(c3)nc(CN3CCC(c5cccc(OCc6ccc(C#N)c7ccccc67)n5)CC3)n4C[C@@H]3CCO3)cc12 [Compound 378] has an EC50 of 1.03 nM. For Cc1n[nH]c2c(C(F)(F)F)cc(NC(=O)c3ccc4nc(CN5CC=C(c6cccc(OCc7ccc(Cl)cc7F)n6)CC5)n(CC5CCO5)c4c3)cc12 (centres unmarked) [Compound 272], the EC50 was 3.21 nM. Work on O=C(Nc1ccc2nc(CN3CC=C(c4cccc(OCc5ccc(Cl)cc5F)n4)CC3)n(C[C@@H]3CCO3)c2c1)c1cc(F)c2c(c1)C1(CC1)C(=O)N2 [Compound 286] yielded an EC50 of 0.21 nM. Cc1cc(C(=O)Nc2ccc3c(c2)nc(CN2CC=C(c4cccc(OCc5ccc(Cl)cc5F)n4)CC2)n3C[C@@H]2CCO2)cc2c(C3CC3)n[nH]c12 [Compound 218] was tested, and the EC50 was 1.63 nM. With COCCn1c(CN2CCC(c3cccc(OCc4ccc(Cl)cc4F)n3)CC2)nc2cc(C(=O)NCCc3c[nH]c4ccc(O)cc34)ccc21 [Compound 17] the EC50 was 404 nM. Cc1n[nH]c2cnc(NC(=O)c3ccc4c(c3)nc(CN3CC=C(c5cccc(OCc6ccc(Cl)cc6F)n5)CC3)n4C[C@@H]3CCO3)cc12 [Compound 192] showed an EC50 of 9.87 nM. For O=C(NCC(=O)N1C2CCC(C2)[C@H]1C(=O)O)c1ccc2c(c1)nc(CN1CCC(c3cccc(OCc4ccc(Cl)cc4F)n3)CC1)n2C[C@@H]1CCO1 (some centres unmarked) [Compound 59], the EC50 was 7.2 nM. Work on Cc1n[nH]c2c(F)cc(C(=O)Nc3ccc4c(c3)nc(CN3CC=C(c5cccc(OCc6cc(F)c(C#N)s6)n5)CC3)n4C[C@@H]3CCO3)cc12 [Compound 362] yielded an EC50 of 0.85 nM. Compound O=C(NCC(=O)N1CC[C@H](C(=O)O)C1)c1ccc2c(c1)nc(CN1CCC(c3cccc(OCc4ccc(Cl)cc4F)n3)CC1)n2C[C@@H]1CCO1 [Compound 54] has an EC50 of 79.7 nM. COCCn1c(CN2CCC(c3cccc(OCc4ccc(Cl)cc4F)n3)CC2)nc2cc(C(=O)NCCc3nc4ccccc4[nH]3)ccc21 [Compound 22] gave an EC50 of 1370 nM. COCCn1c(CN2CCC(c3cccc(OCc4ccc(Cl)cc4F)n3)CC2)nc2cc(C(=O)NCc3ccc(O)c(O)c3)ccc21 [Compound 33] gave an EC50 of 61 nM. Work on Cc1n[nH]c2c(Cl)cc(NC(=O)c3ccc4c(c3)nc(CN3CC=C(c5cccc6c5OC(C)(c5ccc(Cl)cc5F)O6)C[C@@H]3C)n4CC3CCO3)cc12 (some centres unmarked) [Compound 302] yielded an EC50 of 1.07 nM. With COCCn1c(CN2CCC(c3cccc(OCc4ccc(Cl)cc4F)n3)CC2)nc2cc(C(=O)NCc3ccc(NC(C)=O)cc3)ccc21 [Compound 27] the EC50 was 129 nM. Work on Cn1c(=O)[nH]c2ccc(NC(=O)c3ccc4c(c3)nc(CN3CC=C(c5cccc(OCc6ccc(Cl)cc6F)n5)CC3)n4C[C@@H]3CCO3)cc21 [Compound 146] yielded an EC50 of 24 nM. Work on CC1(c2ccc(Cl)cc2F)Oc2cccc(C3=CCN(Cc4nc5cc(C(=O)Nc6ccc7[nH]nc(C(F)(F)F)c7c6)ccc5n4CC4CCO4)CC3)c2O1 (centres unmarked) [Compound 297] yielded an EC50 of 3.65 nM. Compound Cc1cc(C(=O)Nc2ccc3c(c2)nc(CN2CC=C(c4cccc(OCc5ccc(Cl)cc5F)n4)CC2)n3C[C@@H]2CCO2)c(F)c2c(C)n[nH]c12 [Compound 222] has an EC50 of 3.56 nM.
